The record followed here is patent EP1089755B1, “PHARMACEUTICAL PREPARATIONS FOR USE IN COMBATTING OR PREVENTING SURFACE INFECTIONS CAUSED BY MICROORGANISMS” (priority 1998, dated 2000).

As a reminder, the inhibition is the change of the read-out against control, counted positive when it falls.

Values after ≈ are worked out from the molar mass of the structure shown.

In one assay the test system is C. tropicana Y140. The assay is described as follows: MIC of antifungal agents (96-well turbidity assay, 24 hours). The settings on record: isolate Y140 (RPMI), RPMI-medium instead of SLM, read-out: minimum inhibitory concentrations (MIC). In kind it is cell-based.
Assay [1] concerns C. glabrata Y110. The assay is described as above. The settings on record: for MIC: Nakaseomyces glabratus, Y110, 24 h, read-out: minimum inhibitory concentrations (MIC). It is filed as cell-based.
In the next assay the test system is C. albicans Y106. The description is as above. It is filed as cell-based. The settings on record: Candida albicans, isolate Y106, SLM, read-out: minimum inhibitory concentrations (MIC).
The next assay concerns C. albicans ATCC 10231. The assay is described as above. In kind it is cell-based. The settings on record: Candida albicans, isolate 10231 (ATCC strain), SLM, read-out: minimum inhibitory concentrations (MIC).
A further assay has as its system C. albicans Y098. The description is as above. In kind it is cell-based. The settings on record: Candida albicans, isolate Y098, SLM, read-out: minimum inhibitory concentrations (MIC).
The subject of the next assay is C. glabrata Y111. The description is as above. In kind it is cell-based. The settings on record: Nakaseomyces glabratus, isolate Y111, SLM, read-out: minimum inhibitory concentrations (MIC).
The test system of another assay is C. glabrata Y112. The assay is described as above. In kind it is cell-based. The settings on record: Nakaseomyces glabratus, isolate Y112, SLM, read-out: minimum inhibitory concentrations (MIC).
A further assay concerns C. albicans Y127. The assay is described as above. In kind it is cell-based. The following applies: isolate Y127, SLM; for MIC: Candida albicans, read-out: minimum inhibitory concentrations (MIC).
For assay [2], the system named is C. glabrata Y110. The assay is described as follows: Synergy experiments (8 by 8 dilution matrix, Prichard and Shipman method). It is filed as cell-based, Candida glabrata.
Assay [3] relates to C. glabrata Y110. Put plainly: Candida growth inhibition and MIC at several pH's in SLM or RPMI (96-well turbidity assay). It is filed as cell-based, Candida glabrata. The settings on record: for MIC: Nakaseomyces glabratus, read-out: minimal inhibitory concentrations (MIC).
The subject of a further assay is Candida glabrata Y110. Put plainly: MIC in the presence of saliva (SLM or SLM/Saliva, pH 7.5). In kind it is cell-based. The settings on record: Nakaseomyces glabratus.

For `Nc1nc(=O)[nH]cc1F` [5-Fluorocytosine, 5-fluorocytosine], the MIC in the assay on C. tropicana Y140 was 35 ± 7.07 µg/mL; with C. glabrata Y110 [1] (isolate Y110 (RPMI), RPMI-medium instead of SLM), 0.029 ± 0.005 µg/mL.
As for `C[C@@H]1[C@H](O)[C@@H](C)/C=C/C=C/C=C/C=C/C=C/C=C/C=C/[C@H](O[C@@H]2O[C@H](C)[C@@H](O)[C@H](N)[C@@H]2O)C[C@@H]2O[C@](O)(C[C@@H](O)C[C@@H](O)[C@H](O)CC[C@@H](O)C[C@@H](O)CC(=O)O[C@H]1C)C[C@H](O)[C@H]2C(=O)O` [Amphoterricin B, Amphotericin B], the MIC amounted to 0.082 ± 0.03 µg/mL in the assay on C. albicans Y106; 0.06 ± 0.05 µg/mL in the assay on C. albicans ATCC 10231; 0.173 ± 0.06 µg/mL with C. glabrata Y110 [1] (isolate Y110, SLM); 0.08 ± 0.03 µg/mL in the assay on C. albicans Y098; 0.14 ± 0.07 µg/mL with C. glabrata Y111; 0.4 ± 0.05 µg/mL in the assay on C. glabrata Y112. Further, the MIC with C. albicans Y127 was 0.15 µg/mL. Besides, the “minimum inhibitory concentrations (MIC)” value in the assay with C. albicans Y127 stood at 0.15 ± 0.07 µg/mL.
Regarding `OC(Cn1cncn1)(Cn1cncn1)c1ccc(F)cc1F` [Fluconazole, fluconazole], the MIC in the assay on C. albicans Y106 was found to be 10 µg/mL; with C. glabrata Y110 [3] (Y110, RPMI, pH 5.0, 24 hours) it was 250 µg/mL (≈ 816 µM); in the assay with C. glabrata Y110 [3] (Y110, RPMI, pH 6.0, 24 hours) it was 110 µg/mL (≈ 359 µM); with C. glabrata Y110 [3] (Y110, RPMI, pH 7.0, 24 hours), 60 µg/mL (≈ 196 µM); with C. glabrata Y110 [3] (Y110, SLM, pH 5.6, 24 hours) it was 200 µg/mL (≈ 653 µM); with C. glabrata Y110 [3] (Y110, SLM, pH 6.5, 24 hours), 100 µg/mL (≈ 327 µM). The MIC with C. glabrata Y110 [3] (Y110, SLM, pH 7.5, 24 hours) turned out to be 100 µg/mL (≈ 327 µM); in the assay with C. glabrata Y110 [1] (isolate Y110, SLM), 159 µg/mL; with C. glabrata Y111, 24 ± 7 µg/mL; in the assay on Candida glabrata Y110 (Y110, SLM, pH 7.5) it was 100 µg/mL; in the assay with Candida glabrata Y110 (Y110, SLM/Saliva (50%/50%), 24 hours) it was 40 µg/mL; with Candida glabrata Y110 (Y110, SLM, pH 7.5, 24 hours), 100 µg/mL. Besides, the MIC in the assay with C. albicans Y127 came out at 10 µg/mL. The UV in the assay on C. glabrata Y110 [2] (Fluconazole 0.0033 mg/ml alone) was found to be 1.150; in the assay on C. glabrata Y110 [2] (Fluconazole 0.0066 mg/ml alone) it was 1.167; in the assay with C. glabrata Y110 [2] (Fluconazole 0.01 mg/ml alone), 1.154; with C. glabrata Y110 [2] (Fluconazole 0.033 mg/ml alone), 1.127; with C. glabrata Y110 [2] (Fluconazole 0.1 mg/ml alone) it was 0.618; in the assay on C. glabrata Y110 [2] (Fluconazole 0.2 mg/ml alone), 0.003. Besides, the UV in the assay on C. glabrata Y110 [2] (Fluconazole 0.33 mg/ml alone) came out at 0.003; with C. glabrata Y110 [2] (Fluconazole 0.5 mg/ml alone) it was 0.004. The inhibition at 3.3 µg/mL with C. glabrata Y110 [2] (Nakaseomyces glabratus, Y110, Fluconazole 0.0033 mg/ml alone) came out at 0%. In the assay on C. glabrata Y110 [2] (Nakaseomyces glabratus, Y110, Fluconazole 0.0066 mg/ml alone), the inhibition at 6.6 µg/mL came to 0%. In the assay with C. glabrata Y110 [2] (Nakaseomyces glabratus, Y110, Fluconazole 0.01 mg/ml alone), the inhibition at 10 µg/mL amounted to 0%. For the same molecule, in the assay with C. glabrata Y110 [2] (Nakaseomyces glabratus, Y110, Fluconazole 0.033 mg/ml alone), the inhibition at 33 µg/mL stood at 0%. The inhibition at 100 µg/mL in the assay on C. glabrata Y110 [2] (Nakaseomyces glabratus, Y110, Fluconazole 0.1 mg/ml alone) is 39.5%. Besides, the inhibition at 200 µg/mL in the assay with C. glabrata Y110 [2] (Nakaseomyces glabratus, Y110, Fluconazole 0.2 mg/ml alone) was found to be 99.8%. The inhibition at 330 µg/mL in the assay on C. glabrata Y110 [2] (Nakaseomyces glabratus, Y110, Fluconazole 0.33 mg/ml alone) came out at 99.8%. Also, the inhibition at 500 µg/mL in the assay on C. glabrata Y110 [2] (Nakaseomyces glabratus, Y110, Fluconazole 0.5 mg/ml alone) is 99.6%. For the same molecule, in the assay on C. glabrata Y110 [3] (SLM and RPMI), the “effect of an increase in pH of the medium on inhibition” value is reported as “more efficient inhibition”. Further, the “minimum inhibitory concentrations (MIC)” value in the assay with C. glabrata Y110 [1] (isolate Y110, SLM) came out at 156 ± 50 µg/mL.
